Experimental data reported in patent US20170037028A1 (BAYER PHARMA AKTIENGESELLSCHAFT, priority 2013, published 2017).
pIC50: −log10 of the molar value.

Target: T1, GLUT1 (Homo sapiens, UniProt P11166)
T1 sequence (P11166 1-492): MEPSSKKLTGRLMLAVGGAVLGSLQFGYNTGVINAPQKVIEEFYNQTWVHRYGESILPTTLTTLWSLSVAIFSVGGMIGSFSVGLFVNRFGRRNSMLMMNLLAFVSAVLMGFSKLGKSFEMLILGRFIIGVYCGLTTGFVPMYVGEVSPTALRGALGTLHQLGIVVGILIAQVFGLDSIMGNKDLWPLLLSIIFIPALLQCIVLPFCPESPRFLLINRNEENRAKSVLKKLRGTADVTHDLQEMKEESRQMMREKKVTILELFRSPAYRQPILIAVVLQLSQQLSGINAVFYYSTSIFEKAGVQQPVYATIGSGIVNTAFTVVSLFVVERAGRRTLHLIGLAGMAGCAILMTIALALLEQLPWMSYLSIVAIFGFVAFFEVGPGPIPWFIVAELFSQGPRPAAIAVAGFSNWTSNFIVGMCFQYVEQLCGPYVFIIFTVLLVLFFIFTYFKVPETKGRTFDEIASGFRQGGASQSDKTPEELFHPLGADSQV
Experiment: Indirect measurement of GLUT1 activity by quantification of intracellular ATP levels (glucose induced ATP increase)
Type: cell-based
Design: endogenous in cells; host or cells: DLD1 or CHO-K1
Details: read-out: IC50 regarding glucose induced ATP increase (GLUT1 inhibition)
How it was run: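 DLD1 or CHO-K1 cells were starved overnight in glucose-free medium with 1% FCS, then combined with an oxidative phosphorylation inhibitor. GLUT1 activity was read as glucose-induced ATP increase, GLUT2 as fructose-induced. Intracellular ATP was quantified by CellTiter-Glo luminescence.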

Structure (SMILES) | pIC50
Cc1nn(Cc2ccc(C#N)nc2)c(C)c1NC(=O)c1cc(C(F)(F)F)nc2cc(F)c(F)cc12 [Example 183, N-{1-[(6-cyanopyridin-3-yl)methyl]-3,5-dimethyl-1H-pyrazol-4-yl}-6,7-difluoro-2-(trifluoromethyl)quinoline-4-carboxamide] | 6.97
Cc1nn(Cc2ccc(F)cc2)c(C)c1NC(=O)c1ccnc2ccc(Br)cc12 [Example 184, 6-bromo-N-[1-(4-fluorobenzyl)-3,5-dimethyl-1H-pyrazol-4-yl]quinoline-4-carboxamide] | 6.96
Cc1cc(C(=O)Nc2c(C)nn(Cc3ccc(F)c(F)c3)c2C)c2cc(Br)ccc2n1 [Example 185, 6-bromo-N-[1-(3,4-difluorobenzyl)-3,5-dimethyl-1H-pyrazol-4-yl]-2-methylquinoline-4-carboxamide] | 6.91
Cc1ccc2nc(C)cc(C(=O)Nc3c(C)nn(Cc4ccc(F)c(Cl)c4)c3C)c2c1 [Example 186, N-[1-(3-chloro-4-fluorobenzyl)-3,5-dimethyl-1H-pyrazol-4-yl]-2,6-dimethylquinoline-4-carboxamide] | 6.90
Cc1nn(Cc2ccn(C)n2)c(C)c1NC(=O)c1cc(C(F)(F)F)nc2ccc(Br)cc12 [Example 187, 6-bromo-N-{3,5-dimethyl-1-[(1-methyl-1H-pyrazol-3-yl)methyl]-1H-pyrazol-4-yl}-2-(trifluoromethyl)quinoline-4-carboxamide] | 6.88
Cc1ccc2nc(C)cc(C(=O)Nc3c(C(F)(F)F)nn(Cc4ccc(C#N)cc4)c3C)c2c1 [Example 188, N-[1-(4-cyanobenzyl)-5-methyl-3-(trifluoromethyl)-1H-pyrazol-4-yl]-2,6-dimethylquinoline-4-carboxamide] | 6.79
Cc1nn(Cc2ccc(F)c(F)c2)c(C)c1NC(=O)c1cc(C(F)(F)F)nc2cc(Br)ccc12 [Example 189, 7-bromo-N-[1-(3,4-difluorobenzyl)-3,5-dimethyl-1H-pyrazol-4-yl]-2-(trifluoromethyl)quinoline-4-carboxamide] | 6.78
Cc1nn(Cc2ccc(F)c(Cl)c2)c(C)c1NC(=O)c1cc(C(F)(F)F)nc2ccc(Br)cc12 [Example 190, 6-bromo-N-[1-(3-chloro-4-fluorobenzyl)-3,5-dimethyl-1H-pyrazol-4-yl]-2-(trifluoromethyl)quinoline-4-carboxamide] | 6.77
Cc1nn(Cc2ccc(F)c(Cl)c2)c(C)c1NC(=O)c1cc(C(F)(F)F)nc2cc(F)c(F)cc12 [Example 191, N-[1-(3-chloro-4-fluorobenzyl)-3,5-dimethyl-1H-pyrazol-4-yl]-6,7-difluoro-2-(trifluoromethyl)quinoline-4-carboxamide] | 6.77
COc1ccc2nccc(C(=O)Nc3c(C)nn(Cc4ccc(F)cc4)c3C)c2c1 [Example 192, N-[1-(4-fluorobenzyl)-3,5-dimethyl-1H-pyrazol-4-yl]-6-methoxyquinoline-4-carboxamide] | 6.75
Cc1c(NC(=O)c2cc(C(F)(F)F)nc3cc(F)c(F)cc23)c(C(F)(F)F)nn1Cc1ccc(F)cc1 [Example 193, 6,7-difluoro-N-[1-(4-fluorobenzyl)-5-methyl-3-(trifluoromethyl)-1H-pyrazol-4-yl]-2-(trifluoromethyl)quinoline-4-carboxamide] | 6.67
COCCN(C(=O)c1cc(C(F)(F)F)nc2ccc(Br)cc12)c1c(C)nn(Cc2ccc(F)cc2)c1C [Example 194, 6-bromo-N-[1-(4-fluorobenzyl)-3,5-dimethyl-1H-pyrazol-4-yl]-N-(2-methoxyethyl)-2-(trifluoromethyl)quinoline-4-carboxamide] | 6.64
Cc1nn(CC2CCCCC2)c(C)c1NC(=O)c1cc(C(F)(F)F)nc2cc(F)c(F)cc12 [Example 195, N-[1-(cyclohexylmethyl)-3,5-dimethyl-1H-pyrazol-4-yl]-6,7-difluoro-2-(trifluoromethyl)quinoline-4-carboxamide] | 6.57
Cc1nn(Cc2cccnc2)c(C)c1NC(=O)c1cc(C(F)(F)F)nc2cc(F)c(F)cc12 [Example 196, N-[3,5-dimethyl-1-(pyridin-3-ylmethyl)-1H-pyrazol-4-yl]-6,7-difluoro-2-(trifluoromethyl)quinoline-4-carboxamide] | 6.54
Cc1c(NC(=O)c2cc(C(F)(F)F)nc3ccc(Br)cc23)c(C(F)(F)F)nn1Cc1ccc(F)c(F)c1 [Example 197, 6-bromo-N-[1-(3,4-difluorobenzyl)-5-methyl-3-(trifluoromethyl)-1H-pyrazol-4-yl]-2-(trifluoromethyl)quinoline-4-carboxamide] | 6.48
Cc1nn(Cc2ccc(F)cc2)c(C)c1NC(=O)c1cc(N2CCOCC2)nc2ccccc12 [Example 198, N-[1-(4-fluorobenzyl)-3,5-dimethyl-1H-pyrazol-4-yl]-2-(morpholin-4-yl)quinoline-4-carboxamide] | 6.36

Structure (SMILES) | pIC50
Cc1c(NC(=O)c2cc(C(F)(F)F)nc3c(Cl)cc(Cl)cc23)c(C(F)(F)F)nn1Cc1ccc(F)c(F)c1 [Example 199, 6,8-dichloro-N-[1-(3,4-difluorobenzyl)-5-methyl-3-(trifluoromethyl)-1H-pyrazol-4-yl]-2-(trifluoromethyl)quinoline-4-carboxamide] | 6.36
Cc1nn(Cc2ccc(F)cc2)c(C)c1N(Cc1ccccc1)C(=O)c1cc(C(F)(F)F)nc2ccc(Br)cc12 [Example 200] | 6.27
Cc1ccc2nc(C)cc(C(=O)Nc3c(C)nn(Cc4ccc(C#N)nc4)c3C)c2c1 [Example 201, N-{1-[(6-cyanopyridin-3-yl)methyl]-3,5-dimethyl-1H-pyrazol-4-yl}-2,6-dimethylquinoline-4-carboxamide] | 6.25
Cc1ccc2nc(C)cc(C(=O)Nc3c(C)nn(Cc4ccc(C(=O)NCCO)cc4)c3C)c2c1 [Example 202, N-(1-{4-[(2-hydroxyethyl)carbamoyl]benzyl}-3,5-dimethyl-1H-pyrazol-4-yl)-2,6-dimethylquinoline-4-carboxamide] | 6.25
Cc1ccc2nc(C)cc(C(=O)Nc3c(C(F)(F)F)nn(Cc4ccc(F)c(F)c4)c3C)c2c1 [Example 203, N-[1-(3,4-difluorobenzyl)-5-methyl-3-(trifluoromethyl)-1H-pyrazol-4-yl]-2,6-dimethylquinoline-4-carboxamide] | 6.22
Cc1ccc2nc(C)cc(C(=O)Nc3c(C(F)(F)F)nn(Cc4ccc(F)cc4F)c3C)c2c1 [Example 204, N-[1-(2,4-difluorobenzyl)-5-methyl-3-(trifluoromethyl)-1H-pyrazol-4-yl]-2,6-dimethylquinoline-4-carboxamide] | 6.21
Cc1c(NC(=O)c2cc(C(F)(F)F)nc3c(Cl)cc(Cl)cc23)c(C(F)(F)F)nn1Cc1ccc(F)cc1F [Example 205, 6,8-dichloro-N-[1-(2,4-difluorobenzyl)-5-methyl-3-(trifluoromethyl)-1H-pyrazol-4-yl]-2-(trifluoromethyl)quinoline-4-carboxamide] | 6.21
Cc1ccc2nc(C)cc(C(=O)Nc3c(C)nn(CC4CCCCC4)c3C)c2c1 [Example 206, N-[1-(cyclohexylmethyl)-3,5-dimethyl-1H-pyrazol-4-yl]-2,6-dimethylquinoline-4-carboxamide] | 6.18
Cc1c(NC(=O)c2cc(C(F)(F)F)nc3cc(F)c(F)cc23)c(C(F)(F)F)nn1Cc1ccc(F)c(F)c1 [Example 207, N-[1-(3,4-difluorobenzyl)-5-methyl-3-(trifluoromethyl)-1H-pyrazol-4-yl]-6,7-difluoro-2-(trifluoromethyl)quinoline-4-carboxamide] | 6.16
Cc1ccc2nc(C)cc(C(=O)Nc3c(C)nn(Cc4cccnc4)c3C)c2c1 [Example 208, N-[3,5-dimethyl-1-(pyridin-3-ylmethyl)-1H-pyrazol-4-yl]-2,6-dimethylquinoline-4-carboxamide] | 6.13
Cc1nn(Cc2ccc(F)cc2)c(C)c1NC(=O)c1cc(C(=O)N(C)C)nc2ccccc12 [Example 209, N^4-[1-(4-fluorobenzyl)-3,5-dimethyl-1H-pyrazol-4-yl]-N^2,N^2-dimethylquinoline-2,4-dicarboxamide] | 6.09
Cc1c(NC(=O)c2cc(C(F)(F)F)nc3cc(F)c(F)cc23)c(C(F)(F)F)nn1Cc1ccc(F)cc1F [Example 210, N-[1-(2,4-difluorobenzyl)-5-methyl-3-(trifluoromethyl)-1H-pyrazol-4-yl]-6,7-difluoro-2-(trifluoromethyl)quinoline-4-carboxamide] | 6.07
Cc1nn(Cc2ccc(F)cc2)c(C)c1NC(=O)c1ccnc2ccccc12 [Example 211, N-[1-(4-fluorobenzyl)-3,5-dimethyl-1H-pyrazol-4-yl]quinoline-4-carboxamide] | 6.02
Cc1nn(Cc2ccc(C#N)cc2)c(C)c1NC(=O)c1cc(C(N)=O)nc2cc(F)c(Cl)cc12 [Example 212, 6-chloro-N^4-[1-(4-cyanobenzyl)-3,5-dimethyl-1H-pyrazol-4-yl]-7-fluoroquinoline-2,4-dicarboxamide] | 9.22
Cc1c(NC(=O)c2cc(C(N)=O)nc3cc(F)c(Cl)cc23)c(C(F)(F)F)nn1Cc1ccc(C#N)cc1 [Example 213, 6-chloro-N^4-[1-(4-cyanobenzyl)-5-methyl-3-(trifluoromethyl)-1H-pyrazol-4-yl]-7-fluoroquinoline-2,4-dicarboxamide] | 9.15
